Here are results for 2 compounds from paper PMC12036814 (Angewandte Chemie (International Ed. in English), 2025).

The target of one experiment is T1, IDH2 (Homo sapiens, UniProt P48735).
T1 construct: purchased active motif 31615
T1 sequence (P48735 40-452): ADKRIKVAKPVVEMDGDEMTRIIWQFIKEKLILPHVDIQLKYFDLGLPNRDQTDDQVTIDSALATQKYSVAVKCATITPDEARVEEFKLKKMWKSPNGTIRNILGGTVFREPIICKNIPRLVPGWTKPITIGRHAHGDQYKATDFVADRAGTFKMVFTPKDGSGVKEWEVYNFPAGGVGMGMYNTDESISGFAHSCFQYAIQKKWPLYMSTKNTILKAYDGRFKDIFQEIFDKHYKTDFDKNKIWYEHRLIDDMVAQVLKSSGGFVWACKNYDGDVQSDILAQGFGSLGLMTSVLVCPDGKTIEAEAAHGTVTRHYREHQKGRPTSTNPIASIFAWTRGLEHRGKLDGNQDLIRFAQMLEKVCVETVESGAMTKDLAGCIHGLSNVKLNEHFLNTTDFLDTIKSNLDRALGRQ
The experiment can be described thus: IDH2 in vitro activity assay (NADPH-coupled diaphorase/resazurin). The following applies: known inhibitor control. It counts as biochemical. (The colour change of resazurin is a common sign of viable cells or microbes.)

Experiment [1] deals with HEK‐293 and PDL‐hTERT cells. Description: MTT assay, relative metabolic activity after 3 days. The following applies: 3 days of treatment. It counts as cell-based, human. The protocol: Methods and Experimental Procedures
(Alfa Aesar, Haverhill, USA, Cat# J66943 ) stocks were prepared in sterile -filtered 0.1 N HCl to a
maximum concentration of 50 mM. HCl was used as vehicle control, diluted in culture medium, and
Cell culture experiments were performed in HEK 293, A549 or PDL-hTERT cells1 cultured in DMEM high
glucose medium supplemented with 10% FCS and 2 mM glutamine ( all, Sigma-Aldrich, St. Louis, USA,
Cat# G7513) in 5% CO2 atmosphere at 37 °C in Heracell 150i incubators (Thermo Fisher Scientific,
Waltham, USA). The human periodontal ligament (PDL -hTERT) cell line was provided by Prof. Denitsa
Docheva. During standard cell passaging accutase (Sigma-Aldrich) or 2,5x trypsin/0.5% EDTA in PBS
(Capricorn Scientific, Ebsdorfergrund, Germany) was used for cell detachment. Cell dishes in various
sizes (10 cm, 15 cm) and flasks (T75, T175) were used for cultivation (Sarstedt, Nümbrecht, Germany,
purchased from Thermo Fisher Scientific, Waltham, USA, Cat# 130184, 130188.
HEK or PDL-hTERT cells (1,5 x 10^3 cells/well) were seeded into 96 -well plates and grown for 24 h. […]
removed by suction and the formed formazan crystals dissolved in 200 μL DMSO. The read-out was
performed with an Infinite M200 Pro microplate reader (Tecan, Männedorf, Switzerland) at 570 nm
and background was subtracted at 630 nm. The absorbance values were normalized to DMSO/0.1 N […]
For orientation: Tetrazolium assays rely on reduction of a dye to a coloured formazan, in cell work by metabolically active cells.

For another experiment, the target named is NUDT1 (Homo sapiens, UniProt P36639). Description: NUDT1 in vitro activity assay (malachite green). Format: biochemical. The arrangement: Full length NUDT1 gene synthesis; N-terminal His tag with thrombin site from pET28a(+) (NdeI/XhoI) (N, cleaved yes); made in house; host or cells: E. coli BL21 (DE3). The following applies: tested 1-500 µM; highest tested 500 µM.

Another experiment concerns the target T2, ADAL1 (Homo sapiens, UniProt Q6DHV7).
T2 construct: Full length ADAL1 gene synthesis; made in house; host or cells: E. coli BL21 (DE3)
T2 sequence (Q6DHV7 1-355): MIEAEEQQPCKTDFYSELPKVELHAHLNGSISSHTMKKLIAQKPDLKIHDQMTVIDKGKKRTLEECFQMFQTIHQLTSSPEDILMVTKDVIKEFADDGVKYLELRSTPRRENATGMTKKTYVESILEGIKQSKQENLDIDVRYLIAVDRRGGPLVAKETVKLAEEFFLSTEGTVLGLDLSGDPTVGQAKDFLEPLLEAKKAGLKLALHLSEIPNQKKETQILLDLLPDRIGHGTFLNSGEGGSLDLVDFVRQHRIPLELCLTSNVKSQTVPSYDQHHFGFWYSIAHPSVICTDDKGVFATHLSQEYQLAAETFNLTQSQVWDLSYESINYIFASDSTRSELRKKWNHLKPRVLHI
The experiment can be described thus: ADAL1 in vitro activity assay (N6-methyl-AMP absorbance shift). The following applies: tested up to 500 µM. Format: biochemical. Here is the method: Cytiva, Marlborough, USA, Cat# 6818-1304). Nickel-affinity chromatography purification was
performed with Äkta Pure system (GE Healthcare, Chicago, USA) using an HisTrap HP (5 mL, Cytiva,
Marlborough, USA, Cat# 17-5248) column equilibrated in buffer A. The filtered lysate was applied via
the sample pump and subsequently the column was washed for 15 column volumes (CV) with buffer
A, before gradient elution with buffer B (50 mM Tris pH 8.0, 300 mM NaCl, 5 mM β-mercaptoethanol,
0.1% (v/v) NP40, 10% (v/v) glycerol and 400 mM imidazole) from 0% to 100% buffer B over for 25 CV.
ADAL1 containing fraction s were identified via SDS-PAGE, pooled and dialyzed in buffer 1 (20 mM Tris
pH 8.0, 1 mM DTT, 10% (v/v) glycerol ) in a dialysis membrane ( Carl Roth, Karlsruhe, Germany, Cat#
E659.1) overnight at 4 °C. […]
methyl-AMP (Cayman Chemical, Ann Arbor, USA, Cat# 23382) to […] by ADAL1 was monitored by
the shift of the absorbance maxima of educt ( 265 nm) and product (250 nm). […]
substrate N6-methyl-AMP (1 µL of 20 mM stock in PBS). The absorbance at 270 nm was continuously
measured using a Infinite M200 Pro (Tecan, Männedorf, Switzerland) plate reader. […]
the absorbance readings were calculated via linear regression using GraphPad Prism (version 9). […]
residual activity of compound treated protein was determined in comparison to vehicle -treated […]

Experiment [2] has as its system periodontal ligament cell line (PDL‐hTERT). Description: Whole proteome analysis and pathway analysis of treated PDL-hTERT cells. It counts as cell-based, human. The arrangement: dose or concentration left out as unconfirmed. The following applies: same concentrations ([…] and […] µM), 3 days, compared with Ciprofloxacin.

SMILES strings stand for the structures. Entries after “also recorded” stand apart in the source; their conditions may differ.

Procedure for IDH2: Recombinant human isocitrate dehydrogenase was purchased from active motif (Carlsbad, USA, Cat#
Activity assays were performed as previously described with minor
modifications.12 Briefly, the catalytic activity of converting is ocitrate to 2-oxogluterate (α-
ketoglutarate) converting the cofactor NADP+ to NADPH was measured by a NADPH-coupled assay.
The NADPH-dependent diaphorase (Sigma-Aldrich, St. Louis, USA, Cat# SLBT8928) converted resazurin
for activity read-out. To IDH2 (2 nM) in assay buffer (150 mM NaCl, 50 mM K2HPO4, 10 mM MnCl2, 10
mercaptoethanol (cend= 2.5 mM) for a total reaction volume of 79 µL per well (black 96-well plate, 4
replicates per condition). Conditions lacking IDH2 were added as control. After addition of 1 µL of
vehicle controls, the mixture was incubated at 25 °C for 1 h in the dark. Subsequently, the reaction was
initiated by addition of 20 µL of substrate mix (0.2 mM isocitrate, 60 µg/mL diaphorase, 200 µM
resazurin in assay buffer). Fluorescence was continuously measured using an Infinite M200 pro (Tecan,
the fluorescence increases were calculated via linear regression using GraphPad Prism (version 9).

With `CC(C)(O)CNc1nc(Nc2ccnc(C(F)(F)F)c2)nc(-c2cccc(C(F)(F)F)n2)n1` [Enadisenib, Enasidenib], the “extent of IDH2 (wild-type) inhibition compared with the FQs” value at IDH2 is on record as “similar”.

Consider `C[C@H]1COc2c(N3CCN(C)CC3)c(F)cc3c(=O)c(C(=O)O)cn1c23` [Levofloxacin], for which the “approximate apparent IC50 (metabolic activity, MTT)” value in experiment [1] is “well above the reported plasma concentrations”. On NUDT1, the “NUDT1 in vitro activity, inhibition” value was “only at the highest tested concentration (500 µM); also recorded: only significant at the highest concentration tested”. Moreover, the “ADAL1 in vitro activity, effect” value at ADAL1 is recorded as “no significant effect; also recorded: no inhibitory effect was detected”. Besides, the “regulation of ETC complex I and IV subunits” value in experiment [2] was “also observed using the same concentrations, although to a lesser extent”.
